Experimental data as given in patent US20060025398A1, “Topical antiviral therapeutic and prophylactic treatment of adenoviruses and their associated diseases” (priority 2003, published 2006).
Entries after “also recorded” stand apart in the source; their conditions may differ.

Columns and labels:
[1] = test system: Adenovirus types 1, 2, 3, 4, 5, and 7; assay: CTC-96 efficacy against several adenovirus serotypes in HeLa cells in tissue culture (viral titers at each drug concentration); type: cell-based, Human Adenoviruses; conditions: drug overlaid after 1 hour adsorption, 24 hours, 500, 250, 100, 50, 10 μg/ml
Experimental: Since these human viruses cannot be grown in animal models, this provides an excellent indication of the effectiveness of CTC-96 against a broad spectrum of Adenovirus types. To determine CTC-96 efficacy against several types of serotypes of adevirus the following procedure was followed:
1. Hela cells were confluent at the time of inoculation.
2. Virus dilutions were prepared from the known titers of the stock viruses (4×10^5 pfu/ml; 4×10^4/0.1 ml) of Ad1 Kmetz, Ad2 Wolf, Ad3 Holyfield, Ad4 Harris, Ad7a Joseph, ATCC. This virus inoculation yielded a virus infection with an m.o.i. (multiplicity of infection) of approximately 1.0.
3. 100 µl of each Ad serotype were inoculated onto cultures containing Hela cells.
4. During the adsorption period, Doxovir concentrations of 500, 250, 100, 50, 10, and 0 μg/ml were prepared in culture medium according to the dilution protocol.
5. Virus was adsorbed at 37° C. in a 5% CO2 water-vapor atmosphere for 1 hour.
6. […]
13. Viral titers were determined at each drug concentration. […]
(§1) Anti-adenovirus activity of CTC-96 was evaluated by standard cell culture using HeLa cells, a human cervical carcinoma immortalized cell line (the usual host for laboratory grade adenovirus) and anti-viral plaque-reduction assays.

[2] = test system: human Adenovirus type 5 (Ad5); assay: Virus titers after exposure of Ad5 infected HeLa cells to CTC-96 (plaque assay); type: cell-based; conditions: Ad5 adsorbed onto HeLa monolayers 60 min, then CTC-96 for 24 hr
Experimental: Monolayers were then incubated for 24 hr at 37° C. and 5% CO2. Monolayers were then washed, scraped, sonicated, centrifuged and the supernatant serially diluted. These serial dilutions were plated onto indicator HeLa cell monolayers and adsorbed for 60 min, aspirated and a methylcellulose overlay placed over the cells, which were then incubated for 3 days at 37%. Cultures were counterstained with 1% methylene blue, allowed to dry and the plaques counted. Results am expressed as mean & SD (where error bars are not visible they are contained within data point).

Human Adenovirus Type 5 [3] = assay: CTC-96 treatment of Adenovirus induced keratoconjunctivitis in rabbit eyes, clinical grading by slit lamp microscopy; type: in vivo; conditions: for progression of disease severity: 21 days, from day 8 post-inoculation
Experimental: (§2) Clinical results and plaque assay viral titers of three CTC-96 treatment/dosing regimens of rabbit eyes infected with Human adenovirus, Adenovirus type 5 (Ad5), were evaluated. On “Day 1” animals were infected with Human Adenovirus Type 5 by the installation of 10^6 pfu adenovirus according to our protocol of conjunctival and corneal scarification for the induction of Keratoconjunctivitis. […] Animals were then randomized and the following experimental groups were treated with CTC-96 or placebo in a double blind experiment: • (1) Placebo (diluent alone), 9×/day, for 21 days: (4 rabbits). • (2) CTC-96 50 μg/ml, 9×/day, for 21 days: (4 rabbits). • (3) CTC-96 50 μg/ml, 6×/day, for 21 days: (4 rabbits). • (4) C T W 25 μg/ml, 6×/day, for 21 bays: (4 rabbits).
Clinical disease progression and resolution were evaluated by slit lamp microscopy on days 1, 3, 7, 10, 13, 18, 21, 24, 28 and 31 after initial drug dosing. The intensity of the keratitis was quantified using a clinical grading system (5).
The data In FIG. 3 were obtained as follows: rabbits were infected with Human Adenovirus Type 5 by the installation 10^6 pfu adenovirus according to our protocol of conjunctival and corneal scarification for the production of Keratoconjunctivitis. On day 8 post-inoculation treatment with eye drops containing CTC-96 or placebo was initiated. Animals were examined for stromal keratitis and scored by the corneal disease scale of Wander et al. (5). The following are the Criteria For Determination Of Conjunctival Disease: […]

Adenovirus type 5 (Ad5) = assay: Adenovirus type 5 titers following direct exposure of the virus to CTC-96 prior to HeLa cell infection (plaque assay); type: cell-based; conditions: Ad5 incubated with CTC-96 at 37° C. for 60 minutes, diluted 500 fold, HeLa cells
Experimental: as §1
The data graphically depicted in FIG. 1 were obtained as follows: varying concentrations of the CTC-96 were mixed with concentrated Human Adenovirus, [Adenovirus type 5 (Ad5)] and incubated at 37° C. for 60 minutes. Aliquots were then diluted 500 fold into growth medium. Hela cells were exposed to 100 μl of the diluted material to initiate infection. These monolayers were incubated for 24 hours at 37% and 5% CO2 and then washed, scraped, sonicated, centrifuged and the supernatant serially diluted. These serial dilutions were plated onto indicator HeLa cell monolayers and adsorbed for 60 min, aspirated and a methycellulose overlay placed over the cells, which were then incubated for 3 days at 37%. Cultures were counterstained with 1% methylene blue, allowed to dry and the plaques counted. Results are expressed as mean±SD (where error bars are not visible they are contained within data point).

Human Adenovirus Type 5 [4] = assay: Adenovirus recovery from tear film of infected rabbit eyes, plaque assay on HeLa cell monolayers; type: in vivo
Experimental: as §2
The efficacy of CTC-96 treatment of rabbit eyes infected with Human adenovirus, Adenovirus type 5 (Ad5), was also evaluated by adenovirus recovery from tear film cultures adsorbed onto confluent HeLa cell monolayers. […] On day 8 post-inoculation treatment with eye drops containing CTC-96 or placebo was initiated. Adenovirus recovery from tear film was evaluated by plaque assay on confluent HeLa cell monolayers. Data are presented as Average±SD.

`CC(/C=C(/C)[O-])=NCCN=C(C)/C=C(/C)[O-].Cc1ncc[nH]1.Cc1ncc[nH]1.[Br-].[Co+3]` [CTC-96] was tested, and the “efficacy against Adenovirus types in culture” value [1] was “effective against types 1, 2, 3, 4, 5, and 7; also recorded: efficacy against Adenovirus types 1, 2, 3, 4, 5, and 7”, the “effect on viral growth in Adenovirus infected cells subsequently exposed to the drug” value [2] was “inhibition of viral growth” and the “complete resolution of clinical disease (day after initial drug dosing)” value (Human Adenovirus Type 5 [3]; 50 μg/ml 6 times a day for 21 days) was no more than 21 days. The “complete resolution of clinical disease (day after initial drug dosing)” value (Human Adenovirus Type 5 [3]; 50 μg/ml 9 times a day for 21 days) was no more than 21 days, the “progression of disease severity” value (Human Adenovirus Type 5 [3]; topical eye drops 25 μg/ml, 6×/day) was “prevented progression of disease severity” and the “progression of disease severity” value (Human Adenovirus Type 5 [3]; topical eye drops 50 μg/ml, 6×/day or 9×/day) was “prevented progression of disease severity”. The “effect on virus growth when virus is exposed to the drug prior to cell infection” value (Adenovirus type 5 (Ad5)) was “inhibitory (prophylactic) effect on growth”, the “no detectable virus in the eye” value (Human Adenovirus Type 5 [4]; 50 μg/ml 6 times a day) was no more than 13 days and the “no detectable virus in the eye” value (Human Adenovirus Type 5 [4]; 50 μg/ml 9 times a day) was no more than 13 days.
